Results taken from paper PMC10950554 (Methods in enzymology, 2023).

Target: ERK2 (Rattus norvegicus, UniProt P63086)
Assay: competitive fluorescence anisotropy displacement of FITC-X-Lig-D
Format: binding

Chain of ERK2 (P63086 2-358): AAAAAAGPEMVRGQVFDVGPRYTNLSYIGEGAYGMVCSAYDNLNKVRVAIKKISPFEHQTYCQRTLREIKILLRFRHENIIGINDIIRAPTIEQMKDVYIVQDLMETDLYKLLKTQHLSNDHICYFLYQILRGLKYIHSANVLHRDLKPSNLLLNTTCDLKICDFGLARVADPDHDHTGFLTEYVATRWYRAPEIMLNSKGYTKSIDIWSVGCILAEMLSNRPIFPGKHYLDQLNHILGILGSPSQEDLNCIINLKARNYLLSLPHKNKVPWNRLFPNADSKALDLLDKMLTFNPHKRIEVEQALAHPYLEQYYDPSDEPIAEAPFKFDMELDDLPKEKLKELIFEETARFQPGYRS

- Ki: 730 ± 260 nM
SMILES: CC1(C)C2CCC(CN=C(N)CSS(=O)(=O)O)C1C2 (stereo not shown) [NSC 194308]
